In patent US9113629B2, “4-amino-6-(4-substituted-phenyl)-picolinates and 6-amino-2-(4-substituted-phenyl)-pyrimidine-4-carboxylates and their use as herbicides” (DOW AGROSCIENCES LLC, priority 2013, dated 2015):
Where two headings read alike, the source gives them in different places.

Legend:
[1] = test system: SETVI: green foxtail (Setaria viridis); assay: Post-emergent Test III, herbicidal activity in wheat and barley; assay type: in vivo
Method: (§1) Post-emergent Test III. Seeds of the desired test plant species were planted in Sun Gro MetroMix® 306 planting mixture, which typically has a pH of 6.0 to 6.8 and an organic matter content of about 30 percent, in plastic pots with a surface area of 103.2 square centimeters (cm^2). When required to ensure good germination and healthy plants, a fungicide treatment and/or other chemical or physical treatment was applied. The plants were grown for 7-36 days (d) in a greenhouse with an approximate 14 hour (h) photoperiod which was maintained at about 18° C. during the day and 17° C. during the night. Nutrients and water were added on a regular basis and supplemental lighting was provided with overhead metal halide 1000-Watt lamps as necessary. The plants were employed for testing when they reached the second or third true leaf stage.
(§2) A weighed amount, determined by the highest rate to be tested, of each test compound was placed in a 25 mL glass vial and was dissolved in 4 mL of a 97:3 v/v mixture of acetone and DMSO to obtain concentrated stock solutions. […] The concentrated stock solutions obtained were diluted with 20 mL of an aqueous mixture containing acetone, water, isopropyl alcohol, DMSO, Agri-Dex crop oil concentrate, and X-77 surfactant in a 48:39:10:1.5:1.5:0.02 v/v ratio to obtain spray solutions containing the highest application rates. Additional application rates were obtained by serial dilution of 12 mL of the high rate solution into a solution containing 2 mL of 97:3 v/v mixture of acetone and DMSO and 10 mL of an aqueous mixture containing acetone, water, isopropyl alcohol, DMSO, Agri-Dex crop oil concentrate, and X-77 surfactant in a 48:39:10:1.5:1.5:0.02 v/v ratio to obtain ½×, ¼×, ⅛× and 1/16× rates of the high rate. Compound requirements are based upon a 12 mL application volume at a rate of 187 liters per hectare (L/ha). Formulated compounds were applied to the plant material with an overhead Mandel track sprayer equipped with 8002E nozzles calibrated to deliver 187 L/ha over an application area of 0.503 square meters at a spray height of 18 inches (43 cm) above the average plant canopy height. Control plants were sprayed in the same manner with the solvent blank.
(§3) The treated plants and control plants were placed in a greenhouse as described above and watered by subirrigation to prevent wash-off of the test compounds. After 21 d, the condition of the test plants as compared with that of the untreated plants was determined visually and scored on a scale of 0 to 100 percent where 0 corresponds to no injury and 100 corresponds to complete kill.
(§4) By applying the well-accepted probit analysis as described by J. Berkson in Journal of the American Statistical Society, 48, 565 (1953) and by D. Finney in “Probit Analysis” Cambridge University Press (1952), herbicidal injury of a specific compound at various rates can be used to calculate GR20, GR50, GR80 and GR90 values, which are defined as growth reduction factors that correspond to the effective dose of herbicide required to provide plant growth reduction (GR) of 20 percent, 50 percent, 80 percent and 90 percent, respectively. Probit analysis was applied to data collected from multiple dose rates of individual compounds utilizing the procedures explained in the following examples. The analysis of those dose rates is captured in the following tables.

[2] = test system: MATSS: scented mayweed (Matricaria chamomilla), pineappleweed (Matricaria matricarioides); assay: as above; assay type: in vivo; conditions: for pest or weed control at 35 g/ha: 35 g ai/ha; for pest or weed control at 70 g/ha: 70 g ai/ha
Method: as §1, §2, §3, §4

[3] = test system: TRZSS: wheat, including spring and winter (Triticum aestivum); assay: as above; assay type: in vivo; conditions: for pest or weed control at 35 g/ha: 35 g ai/ha; for pest or weed control at 70 g/ha: 70 g ai/ha; for GR20 TRZSS: probit analysis
Method: as §1, §2, §3, §4

[4] = test system: APESV: bentgrass (Apera spica-venti); assay: as above; assay type: in vivo
Method: as §1, §2, §3, §4

[5] = test system: KCHSC: kochia (Kochia scoparia); assay: as above; assay type: in vivo; conditions: for pest or weed control at 35 g/ha: 35 g ai/ha; for pest or weed control at 70 g/ha: 70 g ai/ha; for GR50 KCHSC / GR80 KCHSC: probit analysis
Method: as §1, §2, §3, §4

[6] = test system: ALOMY: black-grass (Alopecurus myosuroides); assay: as above; assay type: in vivo
Method: as §1, §2, §3, §4

LAMSS = assay: as above; assay type: in vivo; conditions: for pest or weed control at 35 g/ha: 35 g ai/ha; for pest or weed control at 70 g/ha: 70 g ai/ha; for GR50 LAMSS / GR80 LAMSS: probit analysis
Method: as §1, §2, §3, §4

[7] = test system: HORSS: barley, including spring and winter (Hordeum vulgare); assay: as above; assay type: in vivo; conditions: for pest or weed control at 35 g/ha: 35 g ai/ha; for pest or weed control at 70 g/ha: 70 g ai/ha; for GR20 HORSS: probit analysis
Method: as §1, §2, §3, §4

[8] = as above; assay type: in vivo, Lolium multiflorum, Lolium rigidum; conditions: Lolium multiflorum, post-emergence, 504 h, read-out: Visual Growth Reduction (%) 21 Days After Application LOLSS
Method: as §1, §2, §3, §4

[9] = probit analysis, dose for growth reduction of 50 percent, 21 days after application
[10] = probit analysis, dose for growth reduction of 80 percent, 21 days after application
[11] = Matricaria chamomilla, post-emergence, 504 h, read-out: Visual Growth Reduction (%) 21 Days After Application MATSS
[12] = Triticum aestivum, post-emergence, 504 h, read-out: Visual Growth Reduction (%) 21 Days After Application TRZSS
[13] = dose for growth reduction of 20 percent, 21 days after application, crop
[14] = Bassia scoparia, post-emergence, 504 h, read-out: Visual Growth Reduction (%) 21 Days After Application KCHSC
[15] = dose for growth reduction of 50 percent, 21 days after application
[16] = dose for growth reduction of 80 percent, 21 days after application
[17] = post-emergence, 504 h, read-out: Visual Growth Reduction (%) 21 Days After Application LAMSS
[18] = Hordeum vulgare, post-emergence, 504 h, read-out: Visual Growth Reduction (%) 21 Days After Application HORSS
[19] = Matricaria chamomilla, post-emergence, 504 h, Table 8, post-emergent, 21 d, read-out: Visual Growth Reduction (%) 21 Days After Application MATSS
[20] = Table 8, dose for 20 percent growth reduction, 21 d
[21] = Triticum aestivum, post-emergence, 504 h, Table 8, post-emergent, 21 d, read-out: Visual Growth Reduction (%) 21 Days After Application TRZSS
[22] = Bassia scoparia, post-emergence, 504 h, Table 8, post-emergent, 21 d, read-out: Visual Growth Reduction (%) 21 Days After Application KCHSC
[23] = Table 8, dose for 50 percent growth reduction, 21 d
[24] = Table 8, dose for 80 percent growth reduction, 21 d
[25] = post-emergence, 504 h, Table 8, post-emergent, 21 d, read-out: Visual Growth Reduction (%) 21 Days After Application LAMSS
[26] = Hordeum vulgare, post-emergence, 504 h, Table 8, post-emergent, 21 d, read-out: Visual Growth Reduction (%) 21 Days After Application HORSS

COC(=O)c1nc(-c2ccc(OC(F)F)cc2)c(F)c(N)c1Cl [Compound 85]
1 g ai/ha: GR20 TRZSS [3, 13]
88 g ai/ha: GR50 MATSS [2, 9]
0 to 29%: pest or weed control at 35 g/ha ([1]; Setaria viridis, post-emergence, 504 h, 35 g ai/ha, read-out: Visual Growth Reduction (%) 21 Days After Application SETVI) | pest or weed control at 70 g/ha ([1]; Setaria viridis, post-emergence, 504 h, 70 g ai/ha, read-out: Visual Growth Reduction (%) 21 Days After Application SETVI) | pest or weed control at 140 g/ha ([1]; Setaria viridis, post-emergence, 504 h, 140 g ai/ha, read-out: Visual Growth Reduction (%) 21 Days After Application SETVI) | pest or weed control at 35 g/ha [2, 11] | pest or weed control at 70 g/ha [2, 11] | pest or weed control at 140 g/ha ([2]; Matricaria chamomilla, post-emergence, 504 h, 140 g ai/ha, read-out: Visual Growth Reduction (%) 21 Days After Application MATSS) | pest or weed control at 35 g/ha ([4]; Apera spica-venti, post-emergence, 504 h, 35 g ai/ha, read-out: Visual Growth Reduction (%) 21 Days After Application APESV) | pest or weed control at 70 g/ha ([4]; Apera spica-venti, post-emergence, 504 h, 70 g ai/ha, read-out: Visual Growth Reduction (%) 21 Days After Application APESV) | pest or weed control at 140 g/ha ([4]; Apera spica-venti, post-emergence, 504 h, 140 g ai/ha, read-out: Visual Growth Reduction (%) 21 Days After Application APESV) | pest or weed control at 35 g/ha [5, 14] | pest or weed control at 70 g/ha [5, 14] | pest or weed control at 140 g/ha ([5]; Bassia scoparia, post-emergence, 504 h, 140 g ai/ha, read-out: Visual Growth Reduction (%) 21 Days After Application KCHSC) | pest or weed control at 35 g/ha ([6]; Alopecurus myosuroides, post-emergence, 504 h, 35 g ai/ha, read-out: Visual Growth Reduction (%) 21 Days After Application ALOMY) | pest or weed control at 70 g/ha ([6]; Alopecurus myosuroides, post-emergence, 504 h, 70 g ai/ha, read-out: Visual Growth Reduction (%) 21 Days After Application ALOMY) | pest or weed control at 140 g/ha ([6]; Alopecurus myosuroides, post-emergence, 504 h, 140 g ai/ha, read-out: Visual Growth Reduction (%) 21 Days After Application ALOMY) | pest or weed control at 35 g/ha [7, 18] | pest or weed control at 35 g/ha ([8]; 35 g ai/ha) | pest or weed control at 70 g/ha ([8]; 70 g ai/ha) | pest or weed control at 140 g/ha ([8]; 140 g ai/ha)
85 to 94%: pest or weed control at 35 g/ha (LAMSS; [17]) | pest or weed control at 70 g/ha (LAMSS; [17]) | pest or weed control at 140 g/ha (LAMSS; post-emergence, 504 h, 140 g ai/ha, read-out: Visual Growth Reduction (%) 21 Days After Application LAMSS)
33 g ai/ha: GR20 HORSS [7, 13]
6 g ai/ha: GR80 LAMSS (LAMSS; [16])
60 to 74%: pest or weed control at 35 g/ha [3, 12] | pest or weed control at 70 g/ha [3, 12] | pest or weed control at 140 g/ha ([3]; Triticum aestivum, post-emergence, 504 h, 140 g ai/ha, read-out: Visual Growth Reduction (%) 21 Days After Application TRZSS) | pest or weed control at 140 g/ha ([7]; Hordeum vulgare, post-emergence, 504 h, 140 g ai/ha, read-out: Visual Growth Reduction (%) 21 Days After Application HORSS)
30 to 44%: pest or weed control at 70 g/ha [7, 18]
>140 g ai/ha: GR50 SETVI [1, 9] | GR80 SETVI [1, 10] | GR80 MATSS [2, 10] | GR50 APESV [4, 9] | GR80 APESV [4, 10] | GR50 KCHSC [5, 15] | GR80 KCHSC [5, 16] | GR50 ALOMY [6, 9] | GR80 ALOMY [6, 10]
0 g ai/ha: GR50 LAMSS (LAMSS; [15])

Nc1cc(-c2ccc(I)cc2F)nc(C(=O)O)c1Cl [Compound 124]
3 g ai/ha: GR50 KCHSC [5, 23]
29 g ai/ha: GR80 KCHSC [5, 24]
32 g ai/ha: GR80 MATSS ([2]; Table 8, dose for 80 percent growth reduction, probit analysis, 21 d)
208.4 to 210.2 °C: melting point
1 g ai/ha: GR20 TRZSS [3, 20] | GR50 LAMSS (LAMSS; [23]) | GR80 LAMSS (LAMSS; [24]) | GR20 HORSS [7, 20]
85 to 94%: pest or weed control at 70 g/ha [2, 19] | pest or weed control at 35 g/ha [3, 21] | pest or weed control at 70 g/ha [3, 21] | pest or weed control at 35 g/ha [5, 22] | pest or weed control at 70 g/ha [5, 22] | pest or weed control at 35 g/ha [7, 26]
75 to 84%: pest or weed control at 35 g/ha [2, 19]
95 to 100%: pest or weed control at 35 g/ha (LAMSS; [25]) | pest or weed control at 70 g/ha (LAMSS; [25]) | pest or weed control at 70 g/ha [7, 26]
